Experimental data published in ChEMBL document CHEMBL1152576, “E-Combretastatin and E-resveratrol structural modifications: antimicrobial and cancer cell growth inhibitory beta-E-nitrostyrenes” (Bioorg Med Chem, 2009).
Converted amounts (≈) assume the structure as drawn. The source made the active and inactive calls. The rule behind the calls is not given here.

Assays:
[1] = system: Escherichia coli; assay: Antimicrobial activity against Escherichia coli ATCC 25922 by broth microdilution susceptibility assay; type: functional
[2] = system: Enterobacter cloacae; assay: Antimicrobial activity against Enterobacter cloacae ATCC 13047 after 24 hrs by broth microdilution susceptibility assay; type: functional; conditions: ATCC 13047, 24 h
[3] = system: KM-20L2; assay: Cytotoxicity against human KM20L2 cells after 48 hrs by sulforhodamine B assay; type: functional; conditions: KM-20L2, 48 h
[4] = system: Streptococcus pneumoniae; assay: Antimicrobial activity against Streptococcus pneumoniae ATCC 6303 assessed clear zone in inhibition per disk by CLSI disk diffusion susceptibility assay; type: functional
[5] = system: MCF7; assay: Cytotoxicity against human MCF7 cells after 48 hrs by sulforhodamine B assay; type: functional; conditions: MCF7, 48 h
[6] = system: Staphylococcus aureus; assay: Antimicrobial activity against Staphylococcus aureus ATCC 29213 assessed clear zone in inhibition per disk by CLSI disk diffusion susceptibility assay; type: functional
[7] = system: Stenotrophomonas maltophilia; assay: Antimicrobial activity against Stenotrophomonas maltophilia ATCC 13637 by broth microdilution susceptibility assay; type: functional
[8] = system: Escherichia coli; assay: Antimicrobial activity against Escherichia coli ATCC 25922 assessed clear zone in inhibition per disk by CLSI disk diffusion susceptibility assay; type: functional
[9] = system: Stenotrophomonas maltophilia; assay: Antimicrobial activity against Stenotrophomonas maltophilia ATCC 13637 assessed clear zone in inhibition per disk by CLSI disk diffusion susceptibility assay; type: functional
[10] = system: Candida albicans; assay: Antifungal activity against Candida albicans ATCC 90028 after 48 hrs by broth microdilution susceptibility assay; type: functional; conditions: ATCC 90028, 48 h
[11] = system: Candida albicans; assay: Antimicrobial activity against Candida albicans ATCC 90028 assessed clear zone in inhibition per disk by CLSI disk diffusion susceptibility assay; type: functional
[12] = system: BXPC-3; assay: Cytotoxicity against human BxPC3 cells after 48 hrs by sulforhodamine B assay; type: functional; conditions: BXPC-3, 48 h
[13] = system: Stenotrophomonas maltophilia; assay: Antimicrobial activity against Stenotrophomonas maltophilia ATCC 13637 after 24 hrs by broth microdilution susceptibility assay; type: functional; conditions: ATCC 13637, 24 h
[14] = system: SF-268; assay: Cytotoxicity against human SF268 cells after 48 hrs by sulforhodamine B assay; type: functional
[15] = system: Staphylococcus aureus; assay: Antimicrobial activity against Staphylococcus aureus ATCC 29213 after 24 hrs by broth microdilution susceptibility assay; type: functional; conditions: ATCC 29213, 24 h
[16] = system: Enterococcus faecalis; assay: Antimicrobial activity against Enterococcus faecalis ATCC 29212 by broth microdilution susceptibility assay; type: functional
[17] = system: Escherichia coli; assay: Antimicrobial activity against Escherichia coli ATCC 25922 after 24 hrs by broth microdilution susceptibility assay; type: functional; conditions: ATCC 25922, 24 h
[18] = system: P388; assay: Cytotoxicity against mouse P388 cells after 48 hrs by sulforhodamine B assay; type: functional; conditions: P388, 48 h, read-out: ED50 (the source's name)
[19] = system: Enterobacter cloacae; assay: Antimicrobial activity against Enterobacter cloacae ATCC 13047 by broth microdilution susceptibility assay; type: functional
[20] = system: NCI-H460; assay: Cytotoxicity against human NCI-H460 cells after 48 hrs by sulforhodamine B assay; type: functional; conditions: NCI-H460, 48 h
[21] = system: Cryptococcus neoformans; assay: Antifungal activity against Cryptococcus neoformans ATCC 90112 after 72 hrs by broth microdilution susceptibility assay; type: functional; conditions: ATCC 90112, 72 h
[22] = system: Streptococcus pneumoniae; assay: Antimicrobial activity against Streptococcus pneumoniae ATCC 6303 by broth microdilution susceptibility assay; type: functional
[23] = Inhibition of tubulin polymerization
[24] = system: Neisseria gonorrhoeae; assay: Antimicrobial activity against Neisseria gonorrhoeae ATCC 49226 after 24 hrs by broth microdilution susceptibility assay; type: functional; conditions: ATCC 49226, 24 h
[25] = system: A498; assay: Cytotoxicity against human A498 cells after 48 hrs by sulforhodamine B assay; type: functional
[26] = system: Neisseria gonorrhoeae; assay: Antimicrobial activity against Neisseria gonorrhoeae ATCC 49226 by broth microdilution susceptibility assay; type: functional
[27] = system: Neisseria gonorrhoeae; assay: Antimicrobial activity against Neisseria gonorrhoeae ATCC 49226 assessed clear zone of inhibition measured per disk by CLSI disk diffusion susceptibility assay; type: functional
[28] = system: Candida albicans; assay: Antifungal activity against Candida albicans ATCC 90028 after 24 hrs by broth microdilution susceptibility assay; type: functional; conditions: ATCC 90028, 24 h
[29] = system: Streptococcus pneumoniae; assay: Antimicrobial activity against Streptococcus pneumoniae ATCC 6303 after 24 hrs by broth microdilution susceptibility assay; type: functional; conditions: ATCC 6303, 24 h
[30] = system: Enterococcus faecalis; assay: Antimicrobial activity against Enterococcus faecalis ATCC 29212 after 24 hrs by broth microdilution susceptibility assay; type: functional; conditions: ATCC 29212, 24 h
[31] = system: Enterococcus faecalis; assay: Antimicrobial activity against Enterococcus faecalis ATCC 29212 assessed clear zone in inhibition per disk by CLSI disk diffusion susceptibility assay; type: functional
[32] = system: SK-MEL-5; assay: Cytotoxicity against human SK-MEL-5 cells after 48 hrs by sulforhodamine B assay; type: functional
[33] = system: OVCAR-3; assay: Cytotoxicity against human OVCAR-3 cells after 48 hrs by sulforhodamine B assay; type: functional
[34] = system: Staphylococcus aureus; assay: Antimicrobial activity against Staphylococcus aureus ATCC 29213 by broth microdilution susceptibility assay; type: functional
[35] = system: Cryptococcus neoformans; assay: Antimicrobial activity against Cryptococcus neoformans ATCC 90112 assessed clear zone in inhibition per disk by CLSI disk diffusion susceptibility assay; type: functional
[36] = system: SF-295; assay: Cytotoxicity against human SF295 cells after 48 hrs by sulforhodamine B assay; type: functional; conditions: SF-295, 48 h
[37] = system: Enterobacter cloacae; assay: Antimicrobial activity against Enterobacter cloacae ATCC 13047 assessed clear zone in inhibition per disk by CLSI disk diffusion susceptibility assay; type: functional
[38] = system: DU-145; assay: Cytotoxicity against human DU145 cells after 48 hrs by sulforhodamine B assay; type: functional; conditions: DU-145, 48 h
[39] = system: Micrococcus luteus; assay: Antimicrobial activity against Micrococcus luteus Presque Isle 456 by broth microdilution susceptibility assay; type: functional
[40] = system: Micrococcus luteus; assay: Antimicrobial activity against Micrococcus luteus Presque Isle 456 assessed clear zone in inhibition per disk by CLSI disk diffusion susceptibility assay; type: functional

Compound: COc1ccccc1/C=C/[N+](=O)[O-]
- MIC [1]: 64 mg/L (≈ 357 µM)
- MBC [2]: > 64 mg/L
- GI50 [3]: 1.5 mg/L (≈ 8.37 µM)
- MIC [4]: 25 µg
- GI50 [5]: 0.48 mg/L (≈ 2.68 µM)
- MIC [6]: 6.25 µg
- MIC [7]: 32 mg/L (≈ 179 µM)
- MIC [8]: 50 µg
- MIC [9]: 12.5 µg
- MIC [10]: 8 mg/L (≈ 44.6 µM)
- MIC [11]: 1.56 µg
- GI50 [12]: 1.6 mg/L (≈ 8.93 µM)
- MBC [13]: 64 mg/L (≈ 357 µM)
- GI50 [14]: inactive
- MBC [15]: > 64 mg/L
- MIC [16]: 64 mg/L (≈ 357 µM)
- MBC [17]: 64 mg/L (≈ 357 µM)
- EC50 [18]: 0.51 mg/L (≈ 2.85 µM)
- MIC [19]: 64 mg/L (≈ 357 µM)
- GI50 [20]: 1.7 mg/L (≈ 9.49 µM)
- MIC [21]: > 64 mg/L
- MIC [22]: 64 mg/L (≈ 357 µM)
- IC50 [23]: 7.4 µM
- MBC [24]: 2 mg/L (≈ 11.2 µM)
- GI50 [25]: inactive
- MIC [26]: 2 mg/L (≈ 11.2 µM)
- MIC [27]: 0.78 µg
- MFC [28]: 16 mg/L (≈ 89.3 µM)
- MBC [29]: > 64 mg/L
- MBC [30]: > 64 mg/L
- MIC [31]: 0.78 µg
- GI50 [32]: inactive
- GI50 [33]: inactive
- MIC [34]: 64 mg/L (≈ 357 µM)
- MIC [35]: 0.78 µg
- GI50 [36]: 1.7 mg/L (≈ 9.49 µM)
- MIC [37]: 25 µg
- GI50 [38]: 1.5 mg/L (≈ 8.37 µM)
- MIC [39]: > 64 mg/L
- MIC [40]: >100 µg
